Experimental data: patent publication US20220062345A1, “PHARMACEUTICAL COMPOSITION CONTAINING PROTEIN KINASE C ACTIVATOR-TREATED STEM CELLS OR CULTURE THEREOF FOR PREVENTING OR TREATING AUTOIMMUNE DISEASES” (CORESTEM CO.,LTD., priority 2018, published 2022)

How the values were obtained:
PKC-α and δ = test: PKC signaling in MSC by western blot; assay type: cell-based, human; settings: PMA treated to MSC, 24 hours
Protocol: Cells were lysed in ice using a cell lysis buffer (Cell Signaling Technology, Danvers, Mass., USA). Proteins were obtained by centrifugation at 12,000 rpm for 15 minutes at 4° C. The proteins were quantified using the Bradford reagent, and electrophoresis was performed at 75V with 20 μg of the proteins by using an SDS-polyacrylamide gel. After the SDS-polyacrylamide gel was transferred to a PVDF membrane at 95V for 90 minutes, 5% nonfat dry milk was added to TBS (TTBS) including 0.5% Tween 20 and blocked for 1 hour. After blocking, the membrane was placed in 5% BSA/TTBS including a primary antibody and shaken at 4° C. for one day. […] After washing the membrane with TTBS and reacting the membrane with enhanced chemiluminescence (ECL, Amersham Pharmacia Biotech, Piscataway, N.J., USA), the degree of protein expression was measured using a ChemiDoc™ XRS+ machine (Bio-Rad, CA, USA).
PMA was treated to MSC, and after 24 hours, proteins were obtained, and signaling was analyzed through western blot (A in FIG. 4). A PKC inhibitor (Go6983, 1 ug/mL) was pre-treated to MSC for 1 hour, and after PMA was treated, proteins were obtained after 24 hours, and signaling was analyzed through western blot (B in FIG. 4). […] Then, the level of IgM in the supernatant was measured by ELISA (C in FIG. 4). The mRNA levels of the surface molecules of the PMA-treated MSCs were analyzed via RT-PCR (D in FIG. 4). […]

MSC [1] = test: Surface molecules of PMA-treated MSC by RT-PCR and FACS; assay type: cell-based, human; settings: PMA treated to MSC, RT-PCR
Protocol: (§1) The expression levels of mRNA for FasL, PD-L1, PD-L2, ICAM1, VCAM1, β-actin, IFN-γ, TNF-α, IL-12, COX-2, iNOS, IDO, TGF-β, CCL2, CCL3, CXCL10, and CXCL12 were analyzed by quantitative real-time PCR (qPCR). The relative mRNA amount of each sample was calculated based on a threshold cycle (Ct) compared to the threshold cycle (Ct) of β-actin, which is a housekeeping gene.
PMA was treated to MSC, and after 24 hours, proteins were obtained, and signaling was analyzed through western blot (A in FIG. 4). A PKC inhibitor (Go6983, 1 ug/mL) was pre-treated to MSC for 1 hour, and after PMA was treated, proteins were obtained after 24 hours, and signaling was analyzed through western blot (B in FIG. 4). After MSC was pretreated with the PKC inhibitor (Go6983, 1 ug/mL) for 1 hour and PMA was treated, B cells (1×10^5 cells/well) that were isolated from PBMC and PMA-treated MSCs (1×10^3 cells/well) were co-cultured with ODN for 72 hours. Then, the level of IgM in the supernatant was measured by ELISA (C in FIG. 4). The mRNA levels of the surface molecules of the PMA-treated MSCs were analyzed via RT-PCR (D in FIG. 4). The expressions of PD-L1 of the PMA-treated MSC and PD1 of the B cells were analyzed through FACS (E in FIG. 4). After treating the FasL blocking Ab (10 ug/mL) (F) and the PD-L1 blocking Ab (10 ug/mL) (G) to MSCs and adding PMA, MSCs and B cells were cultured with ODN for 72 hours, and then, the IgM level in the supernatant was measured by ELISA. The PMA-treated MSCs were treated with siRNA to confirm […] at the mRNA level via RT-PCR. After the PMA-treated MSCs, in which PD-L1 was knocked down, and B cells were cultured with ODN for 72 hours, the IgM level in the supernatant was measured by ELISA (H in FIG. 4). PMA was treated to the MSCs, and after 24 hours, the total RNA was obtained, and soluble factors were analyzed via RT-PCR (I in FIG. 4).

MSC [2] = test: Chemokines of MSC by RT-PCR and ELISA; assay type: cell-based, human; settings: MSC treated with PMA; mRNA (RT-PCR) and protein (ELISA)
Protocol: Cells were treated with Trypsin-EDTA (Gibco) at […] at a time point when the confluency of 70% to 80% was reached, followed by culturing under a condition of 5% CO2 and 37° C. After 24 hours of material treatment, the cells were recovered, and the total RNA was isolated from the cells using the TRIZOL reagent (invitrogen, MD, USA), and the total RNA was quantified by absorbance measurement at 260 nm.
A total RNA concentration of 0.3 μg was used, and it was synthesized at 42° C. for 1 hour and at 95° C. for 5 minutes. Polymerase chain reaction was performed using 3 μL of synthesized cDNA and 10 pM of a primer. […]
as §1
The chemokines of MSC were analyzed by RT-PCR (A in FIG. 2) and ELISA (B in FIG. 2) at mRNA and protein levels, respectively. […] The migration of B cells with respect to MSC was measured using a transwell, MSCs were seeded in the lower well, and B cells were seeded in the upper well. […]

B cells = test: Co-culture of B cells isolated from PBMC with hMSC and ODN, IgM in supernatant by ELISA; assay type: cell-based; settings: screening of 20 types of chemicals treated to human MSC
Protocol: Human mesenchymal stern cells (MSC) were obtained from hone marrow (BM) cells of human tibiae and femurs. BM cells were cultured in α-MEM medium including 10% fetal bovine serum (FBS), 2 mM L-glutamine, and penicillin/streptomycin under a condition of 37° C. and 5% CO2. Non-adherent cells were removed on day 1, and adhered cells were cultured with medium replenishment every 3 days and used between day 17 and day 20.
As substances used for the pretreatment condition for hMSC, PMA (10 ng/mL, 24-hour treatment, Sigma), I3A (10 μg/mL, 24-hour treatment, Sigma), and IFN-γ (10 ng/mL, 7-day treatment, Sigma) were used.
IFN-γ measurement'as performed according to the test method provided by R&D (#DY285-05), and for IgM, the IgM ELISA kit (eBioscience, Vienna, Austria) was used for measurement. […] Finally, the value was measured at 450 nm to 570 nm.
After B cells (1×10^5 cells/well) isolated from peripheral blood mononuclear cells (PBMC) and PMA-treated hMSC (1×10^3 cells/well) were co-cultured for 72 hours with CpG oligodeoxynucleotides (ODN, 5 μg/mL), the level of IgM in the supernatant was measured by ELISA (A in FIG. 1). T cells (1×10^5 cells/well) isolated from PBMC and PMA-treated hMSCs×10^3 cells/well) were co-cultured for 72 hours with phytohemagglutinin (PHA, 5 ug/mL), and the level of IFN-γ in the supernatant was measured by ELISA (B in FIG. 1). […]

CCCCCCCCCCCCCC(=O)O[C@@H]1[C@@H](C)[C@@]2(O)[C@@H](C=C(CO)C[C@]3(O)C(=O)C(C)=C[C@@H]23)[C@@H]2C(C)(C)[C@]12OC(C)=O [PMA, phorbol myristate acetate]
PKC-α and δ in the cytoplasm of MSC (PKC-α and δ): transferred to the cell membrane | phosphorylation of ERK in MSC (PKC-α and δ): increased | FasL expression in MSC (MSC [1]): expressed | PD-L2 expression in MSC (MSC [1]): expressed | PD-L1 expression in MSC (MSC [1]; FACS): expressed | expression of CXCL10 in MSC (MSC [2]): increased | human B cell function (B cells): inhibits
